Experimental findings from ChEMBL document CHEMBL1268857, “Dolabellane Diterpenoids from the South Atlantic Gorgonian Convexella magelhaenica” (J Nat Prod, 2010) are described below.

One test deals with PANC-1. Briefly: Cytotoxicity against human PANC1 cells. The format is functional, cell-based.
Test [1] can be described thus: Cytotoxicity against mouse LM3 cells. The class given is functional, cell-based.

As to `C=C(C)[C@@H]1CC[C@]2(C)C/C=C(\C)CC/C=C(\C)C(=O)C[C@@H]12`, the results for the IC50 (in the test with PANC-1; in test [1]) were 39.8 µM and 2.5 µM, respectively.
The like results for `C=C(C)[C@@H]1[C@@H](OC(C)=O)C[C@]2(C)[C@H](OC(C)=O)/C=C(\C)CC/C=C(\C)C(=O)C[C@@H]12` were, in that order, 398 µM and 17.8 µM.
